The assay addresses Histamine H2 receptor (Cavia porcellus, UniProt P47747). Put plainly: ChEBML_85064. The text has this:
Histamine H2 receptor antagonistic activity
Sequence of Histamine H2 receptor (P47747 whole entry): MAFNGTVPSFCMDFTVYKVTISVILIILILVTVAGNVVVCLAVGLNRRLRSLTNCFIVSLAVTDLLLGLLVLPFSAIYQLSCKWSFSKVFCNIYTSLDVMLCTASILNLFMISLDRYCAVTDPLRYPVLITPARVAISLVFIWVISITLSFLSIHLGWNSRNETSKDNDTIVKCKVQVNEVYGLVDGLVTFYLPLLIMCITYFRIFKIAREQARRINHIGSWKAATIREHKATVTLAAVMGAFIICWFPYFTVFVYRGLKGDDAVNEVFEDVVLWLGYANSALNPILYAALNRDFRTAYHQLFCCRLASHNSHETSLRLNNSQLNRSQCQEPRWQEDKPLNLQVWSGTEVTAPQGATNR
In turn, `C/N=c1\c(O)c(O)c1=NC/C=C\COc1csc(CN2CCCCC2)c1` returned an IC50 of 1830 nM.
In turn, `CN(C)Cc1cc(OC/C=C\CN=c2c(O)c(O)c2=N)cs1` displayed an IC50 of 684 nM.
To `CN(C)CC/N=c1\c(O)c(O)c1=NC/C=C\COc1csc(CN2CCCCC2)c1` belongs 809 nM; to `CC(C)/N=c1\c(O)c(O)c1=NC/C=C\COc1csc(CN2CCCCC2)c1`, 1930 nM; to `COCC/N=c1\c(O)c(O)c1=NC/C=C\COc1csc(CN2CCCCC2)c1`, 1140 nM.

In general, IC50 refers to the concentration at which inhibition is half-maximal. Low readings indicate higher potency, high ones lower potency.

Source of the values: BindingDB's records for doi:10.7270/Q2XP773S (n/a, 1996).
